In US9834541B2, “2-aminopyridine compounds” (Merck Patent GmbH, priority 2012, dated 2017):

Columns and labels:
[1] = CLint (intrinsic clearance) assay, liver microsomal incubation; assay type: in vitro ADME, human; details: liver microsomes, pH 7.4; human hepatic microsomes, 0.5 mg/mL protein, class symbols
Procedure: Also shown is the human hepatic microsomal intrinsic clearance (CLint), whereby the following classification is used:
2. CLint (Intrinsic Clearance) Assay
A Tecan Genesis workstation (RWS ASY 150/8) was used to perform the microsomal incubations. Analysis was carried out using a Waters ACQUITY UPLC system coupled to an ABSciex API3000 mass spectrometer. Data analysis was performed using Assay Explorer (Symyx).
Column: Acquity UPLC BEH C18, 2.1×50 mm, 1.7 um (Waters)
Mobile phases: • A=0.1% formic acid in water • B=acetonitrile
Column temperature: 50° C.
0.1 M potassium phosphate buffer pH 7.4 containing 1 mM MgCl2
15 mM NADPH in phosphate buffer
5.0 mg protein/mL liver microsomes in phosphate buffer
Each experiment consists of 12 test and 2 reference compounds. The reference compounds are incubated as a cocktail.
Dilution of test compounds was done in 2 steps from a 10 mM DMSO stock solution. First 4 μL stock solution was added to 196 μL of 20% DMSO in potassium phosphate buffer pH 7.4. In a second step 10 μL of the first dilution were added to 1890 μL potassium phosphate buffer and 100 μL internal standard solution to a final concentration of […].
100 μL of the final compound dilution were aliquoted into a 96 deep well plate. 12.5 μL liver microsomes were added to each well (0.5 mg/mL final protein concentration) and the samples preincubated for 5 min at 37° C. and 800 rpm agitation.
After the preincubation, 250 μL cold acetonitrile were added to the 0 min samples to prevent a reaction. Following this, 12.5 μL NADPH solution were added to all wells to start the incubation, with the exception of the 0 min and 30 min controls without cofactor, where the NADPH was substituted for phosphate buffer.
The incubations were stopped after 5, 10, 20 and 30 min by adding 250 μL cold acetonitrile to the individual wells.
The quenched samples were then centrifuged at 4000 g for 1 h at 4° C. 100 μL of the supernatant were transferred into 96 well plates for analysis.
The metabolic stability of each compound was determined by measurement of the change in LC-MS/MS peak area over time. Assay Explorer software was used to automatically calculate the slope k of the decline. The intrinsic clearance (CLint) of each compound was then calculated according to the formula: CLint(μL/min/mg protein)=k1000/protein concentration.

[2] = system: Wnt pathway; assay: Cellular assay for Wnt pathway activity, LS174T-shl-fLuc clone 5 (LS174T-L5) luciferase reporter assay; assay type: cell-based; details: Homo sapiens; LS174T TCF luciferase reporter cells, 24 hours incubation
Text: 1. Cellular Assay for Wnt Pathway Activity LS174T-shl-fLuc Clone 5 (LS174T-L5) Reporter Assay Principle:
This assay is based on an in-vitro luciferase activity readout. The human colon cancer cell line, LS174T was transduced with a lentivirus encoding a short half-life luciferase (with a destabilised PEST sequence construct; construct F1756): 16×TCF/LEF transcription sites—short half life firefly luciferase on a basal pTA promoter—puromycin resistance gene on an EF-1-α promoter). This construct was made using the lentiviral base vector: pCDF1-MCS2-EF1-Puro from System Biosciences (cat. # CD110B-1). The luciferase has a T1/2 of about 60 minutes.
Stable luciferase-expressing clones were selected, using 1 μg/mL puromycin selection and the clones were bulked up.
Compounds that inhibit the Wnt pathway are predicted to inhibit the induction of luciferase transcription by TCF; this will result in reduced luciferase protein production and luciferase signal readout.
Compounds were tested for their Wnt pathway inhibitory activities using the described firefly luciferase reporter cell based assay. An LS174T luciferase reporter cell line was used which contained a T-Cell Factor (TCF) dependent gene promoter firefly luciferase construct.
Compounds, in concentrations from 30 μM to 1 nM, were incubated for 24 hours on the cells. Luciferase activities were determined using the Steady Glo Luciferase Assay System (Promega) and the TOPCOUNT microplate reader (Perkin Elmer). For analysis, the obtained data were normalized against the untreated vehicle control and fitted for determination of the IC50 values using the Excel Fit application of the Excel Software (Microsoft).

microsomal CLint at 0.8 μM [1] [µL/min/mg] | IC50 [2] [nM] | SMILES
10 to 50 | 46 | Cn1cc(-c2ccc(-c3cnc(N)c(C(F)(F)F)c3N3CCC4(CCNC4=O)CC3)cc2)cn1 [Compound 43, 8-{2-Amino-5-[4-(1-methyl-1H-pyrazol-4-yl)-phenyl]-3-trifluoromethyl-pyridin-4-yl}-2,8-diaza-spiro[4.5] decan-1-one]
50 to 100 | 110 | Cn1ncc2cc(-c3cnc(N)c(C(F)(F)F)c3N3CCC(C(N)=O)CC3)ccc21 [Compound 47, 2′-Amino-5′-(1-methyl-1H-indazol-5-yl)-3′-trifluoromethyl-3,4,5,6-tetrahydro-2H-[1,4′] bipyridinyl-4-carboxylic acid amide]
10 to 50 | 4 | Cn1ncc2cc(-c3cnc(N)c(C(F)(F)F)c3N3CCC4(CC3)CC(=O)NC4=O)ccc21 [Compound 49, 8-[2-Amino-5-(1-methyl-1H-indazol-5-yl)-3-trifluoromethyl-pyridin-4-yl]-2,8-diaza-spiro[4.5] decane-1,3-dione]
10 to 50 | 817 | CN1C(=O)Cc2ccc(-c3cnc(N)c(C(F)(F)F)c3N3CCC4(CCNC4=O)CC3)cc21 [Compound 50, 8-[2-Amino-5-(1-methyl-2-oxo-2,3-dihydro-1H-indol-6-yl)-3-trifluoromethyl-pyridin-4-yl]-2,8-diaza-spiro[4.5] decan-1-one]
10 to 50 | 455 | CN1C(=O)Cc2cc(-c3cnc(N)c(C(F)(F)F)c3N3CCC4(CCNC4=O)CC3)ccc21 [Compound 51, 8-[2-Amino-5-(1-methyl-2-oxo-2,3-dihydro-1H-indol-5-yl)-3-trifluoromethyl-pyridin-4-yl]-2,8-diaza-spiro[4.5] decan-1-one]
10 to 50 | 1.2 | Cn1cc(-c2ccc(-c3cnc(N)c(C(F)(F)F)c3N3CCC4(CC3)CC(=O)NC4=O)cc2)cn1 [Compound 52, 8-{2-Amino-5-[4-(1-methyl-1H-pyrazol-4-yl)-phenyl]-3-trifluoromethyl-pyridin-4-yl}-2,8-diaza-spiro[4.5] decane-1,3-dione]
10 to 50 | 644 | Cn1ncc2cc(-c3cnc(N)c(F)c3N3CCC4(CCNC4=O)CC3)ccc21 [Compound 64, 8-[2-Amino-3-fluoro-5-(1-methyl-1H-indazol-5-yl)-pyridin-4-yl]-2,8-diaza-spiro[4.5] decan-1-one]

Second part, the molecule before the results:

SMILES | microsomal CLint at 0.8 μM [1] [µL/min/mg] | IC50 [2] [nM]
Nc1ncc(-c2ccc3c(N)n[nH]c3c2)c(N2CCC3(CCNC3=O)CC2)c1C(F)(F)F [Compound 44, 8-[2-Amino-5-(3-amino-1H-indazol-6-yl)-3-trifluoro-methyl-pyridin-4-yl]-2,8-diaza-spiro[4.5] decan-1-one] | 10 to 50 | 270
CN1c2ccc(-c3cnc(N)c(Cl)c3N3CCC4(CC3)NCCNC4=O)cc2CS1(=O)=O [Compound 46, 9-[2-Amino-3-chloro-5-(1-methyl-2,2-dioxo-2,3-dihydro-1H-2I6-benzo[c]isothiazol-5-yl)-pyridin-4-yl]-1,4,9-triaza-spiro[5.5] undecan-5-one] | 50 to 100 | 150
CN1c2ccc(-c3cnc(N)c(C(F)(F)F)c3N3CCC4(CCNC4=O)CC3)cc2CS1(=O)=O [Compound 53, 8-[2-Amino-5-(1-methyl-2,2-dioxo-2,3-dihydro-1H-2I6-benzo[c]isothiazol-5-yl)-3-trifluoro-methyl-pyridin-4-yl]-2,8-diaza-spiro[4.5] decan-1-one] | 50 to 100 | 8.29
CC(C)n1cc(-c2ccc(-c3cnc(N)c(C(F)(F)F)c3N3CCC4(CC3)CNC(=O)O4)cc2)cn1 [Compound 54, 8-{2-Amino-5-[4-(1-isopropyl-1H-pyrazol-4-yl)-phenyl]-3-trifluoro-methyl-pyridin-4-yl}-1-oxa-3,8-diaza-spiro[4.5] decan-2-one] | 10 to 50 | 88
CC(C)n1cc(-c2ccc(-c3cnc(N)c(Cl)c3N3CCC4(CC3)CNC(=O)O4)cc2)cn1 [Compound 55, 8-{2-Amino-3-chloro-5-[4-(1-isopropyl-1H-pyrazol-4-yl)-phenyl]-pyridin-4-yl}-1-oxa-3,8-diaza-spiro[4.5] decan-2-one] | 10 to 50 | 170
CCN1c2ccc(-c3cnc(N)c(Cl)c3N3CCC4(CCNC4=O)CC3)cc2CS1(=O)=O [Compound 58, 8-[2-Amino-3-chloro-5-(1-ethyl-2,2-dioxo-2,3-dihydro-1H-2I6-benzo[c]isothiazol-5-yl)-pyridin-4-yl]-2,8-diaza-spiro[4.5] decan-1-one] | ≥ 150 | 7.6
CS(=O)(=O)CCn1cc(-c2ccc(-c3cnc(N)c(Cl)c3N3CCC4(CCNC4=O)CC3)cc2)cn1 [Compound 59, 8-(2-Amino-3-chloro-5-{4-[1-(2-methanesulfonyl-ethyl)-1H-pyrazol-4-yl]-phenyl}-pyridin-4-yl)-2,8-diaza-spiro[4.5] decan-1-one] | 10 to 50 | 45
CN1c2ccc(-c3cnc(N)c(F)c3N3CCC4(CC3)CNC(=O)O4)cc2CS1(=O)=O [Compound 60, 8-[2-Amino-3-fluoro-5-(1-methyl-2,2-dioxo-2,3-dihydro-1H-2l6-benzo[c]isothiazol-5-yl)-pyridin-4-yl]-1-oxa-3,8-diaza-spiro[4.5]decan-2-one] | < 10 | 103
CN1c2ccc(-c3cnc(N)c(F)c3N3CCC4(CCNC4=O)CC3)cc2CS1(=O)=O [Compound 61, 8-[2-Amino-3-fluoro-5-(1-methyl-2,2-dioxo-2,3-dihydro-1H-2l6-benzo[c]isothiazol-5-yl)-pyridin-4-yl]-2,8-diaza-spiro[4.5]decan-1-one] | 10 to 50 | 60.1
Nc1ncc(-c2ccc3c(c2)CCS3(=O)=O)c(N2CCC3(CCNC3=O)CC2)c1Cl [Compound 62, 8-[2-Amino-3-chloro-5-(1,1-dioxo-2,3-dihydro-1H-1I6-benzo[b]thiophen-5-yl)-pyridin-4-yl]-2,8-diaza-spiro[4.5] decan-1-one] | 10 to 50 | 450
Cn1cc(-c2ccc(-c3cnc(N)c(F)c3N3CCC4(CC3)CNC(=O)O4)cc2)cn1 [Compound 63, 8-{2-Amino-3-fluoro-5-[4-(1-methyl-1H-pyrazol-4-yl)-phenyl]-pyridin-4-yl}-1-oxa-3,8-diaza-spiro[4.5] decan-2-one] | 10 to 50 | 237
CN1c2ccc(-c3cnc(N)c(Cl)c3N3CC[C@H](C#N)[C@@H](O)C3)cc2CS1(=O)=O [Compound 65, (3R,4R)-2′-Amino-3′-chloro-3-hydroxy-5′-(1-methyl-2,2-dioxo-2,3-dihydro-1H-2I6-benzo[c]isothiazol-5-yl)-3,4,5,6-tetrahydro-2H-[1,4′] bipyridinyl-4-carbonitrile] | 10 to 50 | 14
CN1c2ccc(-c3cnc(N)c(Cl)c3N3CC[C@@H](C#N)[C@H](O)C3)cc2CS1(=O)=O [Compound 66, (3S,4S)-2′-Amino-3′-chloro-3-hydroxy-5′-(1-methyl-2,2-dioxo-2,3-dihydro-1H-2I6-benzo[c]isothiazol-5-yl)-3,4,5,6-tetrahydro-2H-[1,4′] bipyridinyl-4-carbonitrile] | 10 to 50 | 403
CC(C)(O)Cn1cc(-c2ccc(-c3cnc(N)c(Cl)c3N3CCC4(CCNC4=O)CC3)cc2)cn1 [Compound 67, 8-(2-Amino-3-chloro-5-{4-[1-(2-hydroxy-2-methyl-propyl)-1H-pyrazol-4-yl]-phenyl}-pyridin-4-yl)-2,8-diaza-spiro[4.5] decan-1-one] | 10 to 50 | 49
